Laboratory results reported in patent US20220127297A1, “Novel Antibacterial 3"-Derivatives Of 4,6-Disubstituted 2,5-Dideoxystreptamine Aminoglycoside Antibiotics” (AGILeBiotics B.V., priority 2018, published 2022).
Converted amounts (≈) assume the structure as drawn.

System: E. faecalis DSM 2570
Test: MIC 50, broth micro-dilution, DSM strains
Assay type: cell-based, Enterococcus faecalis
Conditions: Enterococcus faecalis, DSM2570, read-out: MIC 50
Text: 3.2 Against Selected Bacteria of the ESKAPE Panel and Enterococcus faecalis (DSM Strains)
Tested reference compounds. Amikacin sulfate (Cat. No. 01693, Chem-Impex), Gentamicin sulfate (Cat. No. G4918, Sigma Aldrich).
Microbial strains. Enterococcus faecalis DSM 2570, Klebsiella pneumoniae DSM 26371, Acinetobacter baumannii DSM 105126, Enterobacter cloacae 3MRGN (clinical bronchial aspirate isolate).
Culture media and equipment. BBL™ Mueller Hinton Broth 2 (Lot. BCBW1143, Cat. No. 70192, Sigma); Trypcase Soy Blood-agar plates (Cat. No. 43001, Biomérieux); Cryoinstant (contains 15% glycerol; Cat. No. 822070ZA, VWR International); GasPak™ EZ Standard Incubation Container (Cat. No. 260671, Becton Dickinson); GasPak™ EZ Campy Container System Sachets (Cat. No. 260680, Becton Dickinson); 96-well deep well plate, 1 mL (Cat. No. 0030506.200, Eppendorf); Plate lid (Cat. No. 0030131.525, Eppendorf); 96-well plate, F-bottom (Cat. No. 260860, Nunc); Incubator (Sartorius Certomat BS-1); Laminar flow (Heraeus HS12); UV/VIS meter (Perkin Elmer Lambda Bio+); Platereader (Tecan Infinite M200 Pro).
Compound preparation. Compounds were prepared in MH2 media at a concentration of 5 mM and stored at 4° C. For testing, solutions of 128 μM were prepared in MH2, for tests against E. faecalis a solution of 512 μM was prepared. Out of these working solutions, 400 μL was transferred to wells in the first column of 96-well deep well plates. Each compound was transferred in triplicate. Plates were previously filled with 200 μL of MH2 media in all wells except for the wells in the first column. After compound and antibiotic addition, the compounds were serial two-fold diluted by transferring 200 μL from the first to the second column, then from the second to the third column and so on. Finally, 200 μL was removed from the last column.
Inoculum preparation. Microorganisms used were all revived from 15% glycerol storage in Croinstant tubes at −28° C. by plating them on blood agar plates. A. baumanni, and E. cloacae were grown aerobically at 37° C., E. faecalis was grown microaerophilically at 37° C., and K. pneumoniae was grown aerobically at 37° C. Plates were stored at 4° C. for up to two weeks, after which new plates were prepared from −28° C. A single colony was inoculated in MH2 media and grown at 37° C. and 200 rpm to an optical density (measured by UV/Vis spectroscopy) of 0.6-0.8 at 600 nm. Out of these suspensions, actual inoculums were prepared by diluting them to an optical density of 0.1 in MH2 media. From these inoculums, 200 μL was transferred to each well, resulting in a final compound concentration range of 64 μM-31.3 nM for, K. pneumoniae, A. baumanni, and E. cloacae, and 256 μM-125 nM for E. faecalis. Plates inoculated with E. faecalis were placed inside a GasPak™ Container System with GasPak™ Campy Container System sachets. All plates were incubated at 200 rpm for 18 h under the microorganism culturing conditions mentioned above.
MIC determination. After 18 h of growth, 200 μL was transferred to a 96-well F-bottom plate. The optical density was determined by a plate reader at 600 nm, with 10 s shaking before reading. Triplicate measurements were averaged, and a growth curve was plotted in Excel. The first column in which the growth reached half the value of maximum growth was determined as the MIC50 value for that particular compound.
MIC50. The MIC50 of a compound was assigned at which the bacterial growth reached half the value of maximum growth.

N=C(NCc1ccncc1)NC1[C@@H](O)C(OC2[C@@H](F)[C@H](O[C@H]3OC(CN)[C@@H](O)CC3N)C(N)C[C@H]2NC(=O)[C@@H](O)CCN)O[C@H](CO)[C@H]1O (stereo partly shown) [ABX5048, Tobra-AHB-F-Gua pyridin-4-yl methyl]
MIC50: 8 µM (≈ 5.63 µg/mL)

N=C(NCc1cnc[nH]1)NC1[C@@H](O)C(OC2[C@@H](F)[C@H](O[C@H]3OC(CN)[C@@H](O)CC3N)C(N)C[C@H]2NC(=O)[C@@H](O)CCN)O[C@H](CO)[C@H]1O (stereo partly shown) [ABX5050, Tobra-AHB-F-Gua imidazol-5-yl methyl]
MIC50: 8 to 16 µM (≈ 5.54 to 11.1 µg/mL)

N=C(NCC1CCOC1)NC1[C@@H](O)C(OC2[C@@H](F)[C@H](O[C@H]3OC(CN)[C@@H](O)CC3N)C(N)C[C@H]2NC(=O)[C@@H](O)CCN)O[C@H](CO)[C@H]1O (stereo partly shown) [ABX5051, Tobra-AHB-F-Gua tetrahydrofuran-3-yl methyl]
MIC50: 8 µM (≈ 5.57 µg/mL)

NCC[C@H](O)C(=O)N[C@@H]1C[C@H](N)[C@@H](O[C@H]2O[C@H](CN)[C@@H](O)[C@H](O)[C@H]2O)[C@H](O)[C@H]1O[C@H]1O[C@H](CO)[C@@H](O)[C@H](N)[C@H]1O [Amikacin, amikacin, reference compound]
MIC50: > 64 µM
